Values quoted from earlier work, collected in patent US6369065B1, “CD40 signal blocking agent” (UCB S.A., priority 2000, dated 2002).

Test system: aorta lesions
Conditions: rabbit models of arteriosclerosis

## CCCCCN(CCO)c1cc(N2CCCCC2)nc2ncnn12 [AR12463]
  progress of aorta lesions: suppress the progress of aorta lesions
